PubChem BioAssay (NCI)
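Interpolation was linear, between the two tested concentrations surrounding the appropriate level; five concentrations were tested over 48 hours in 96-well plates. The concentration for full growth arrest is given as TGI.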 Where a SMILES comes first, the peptide text is derived from it. The star is where a group is joined. Boc = CC(C)(C)OC(=O)*

What was measured:
Test in all cases: NCI-60 cell line screen, 48 h
786-0 renal = tested on: 786-0 renal
ACHN renal = tested on: ACHN renal
CCRF-CEM leukemia = tested on: CCRF-CEM leukemia
LOX IMVI melanoma = tested on: LOX IMVI melanoma
MALME-3M melanoma = tested on: MALME-3M melanoma
NCI-H460 lung = tested on: NCI-H460 lung
NCI-H522 lung = tested on: NCI-H522 lung
NCI/ADR-RES ovarian = tested on: NCI/ADR-RES ovarian
OVCAR-4 ovarian = tested on: OVCAR-4 ovarian
SF-268 CNS = tested on: SF-268 CNS
SK-OV-3 ovarian = tested on: SK-OV-3 ovarian
SNB-75 CNS = tested on: SNB-75 CNS
SR leukemia = tested on: SR leukemia
TK-10 renal = tested on: TK-10 renal
U251 CNS = tested on: U251 CNS
KM12 colon = tested on: KM12 colon
NCI-H226 lung = tested on: NCI-H226 lung
SN12C renal = tested on: SN12C renal

Compound | TGI (786-0 renal) | TGI (ACHN renal) | TGI (CCRF-CEM leukemia) | TGI (LOX IMVI melanoma) | TGI (MALME-3M melanoma) | TGI (NCI-H460 lung) | TGI (NCI-H522 lung) | TGI (NCI/ADR-RES ovarian) | TGI (OVCAR-4 ovarian) | TGI (SF-268 CNS) | TGI (SK-OV-3 ovarian) | TGI (SNB-75 CNS) | TGI (SR leukemia) | TGI (TK-10 renal) | TGI (U251 CNS) | TGI (KM12 colon) | TGI (NCI-H226 lung) | TGI (SN12C renal)
COC(=O)/C=C/c1ccc2c(c1)CCC2 | > 100 µM | > 100 µM | > 100 µM | > 100 µM | > 100 µM | > 100 µM | > 100 µM | > 100 µM | > 100 µM | > 100 µM | > 100 µM | 91.4 µM | 72.9 µM | > 100 µM | > 100 µM | – | – | –
O=C1/C(=C/C=C/c2ccccc2)N=C(c2ccccc2)N1C1Nc2cc3c(cc2S1)NC(N1C(=O)/C(=C/C=C/c2ccccc2)N=C1c1ccccc1)S3 (stereo unspecified) | > 100 µM | > 100 µM | > 100 µM | > 100 µM | – | > 100 µM | 28.8 µM | > 100 µM | > 100 µM | > 100 µM | > 100 µM | – | 27.8 µM | > 100 µM | > 100 µM | > 100 µM | > 100 µM | –
CC1(c2ccc(F)cc2)CC(c2ccc(F)cc2)=C(C#N)C(=C(C#N)C#N)N1 (stereo unspecified) | 29.3 µM | 30.2 µM | 64.5 µM | 38.6 µM | 37.2 µM | 38.2 µM | – | 48.4 µM | 31.3 µM | 37 µM | 37.3 µM | 34.2 µM | 42.2 µM | 32.2 µM | 31.5 µM | 30.1 µM | 82.1 µM | 34.5 µM
C=C1C(=O)O[C@@H]2[C@H]1C[C@@H](O)[C@H](C)[C@@](O)(C(=O)/C=C/C)[C@H]2OC(=O)C(C)CC (stereo partly specified) | 6.91 µM | 9.89 µM | 0.229 µM | 12.3 µM | 4.42 µM | > 100 µM | 3.42 µM | > 67.2 µM | 22.8 µM | > 54 µM | > 100 µM | 51.6 µM | – | 16.7 µM | 26.6 µM | 33.1 µM | > 100 µM | 7.51 µM
CC(=O)OC1CCN(C(=O)c2ccccc2)CC1CC1(c2cc3ccccc3[nH]2)OCCO1 (stereo unspecified) | > 100 µM | > 100 µM | > 100 µM | > 100 µM | > 100 µM | – | > 100 µM | > 100 µM | > 100 µM | – | > 100 µM | > 100 µM | – | > 100 µM | > 100 µM | > 100 µM | > 100 µM | > 100 µM
CCOC(=O)Cc1nnc2c(-c3ccccc3)nc3ccccc3n12 | > 100 µM | 48.3 µM | > 100 µM | > 100 µM | > 100 µM | > 100 µM | – | > 100 µM | > 100 µM | 39.7 µM | 67.6 µM | – | > 100 µM | > 100 µM | 48.4 µM | > 100 µM | > 100 µM | > 100 µM
CCN(CC)CC(=O)Nc1c(C(N)=O)nnn1Cc1cc(Cl)c(C(=O)c2ccc(Cl)cc2)c(Cl)c1 | 31.4 µM | > 100 µM | 41.5 µM | 32.1 µM | – | – | 41.3 µM | 34.7 µM | > 100 µM | 45.5 µM | 51.5 µM | 59 µM | 68.9 µM | 57.4 µM | 41.1 µM | 35.8 µM | 30.4 µM | 50.3 µM
O=C1/C(=C\c2ccc(Cl)cc2Cl)Sc2scc(-c3cccc([N+](=O)[O-])c3)[n+]21 | 12.3 µM | 12.6 µM | – | 3.47 µM | 22.9 µM | 29.7 µM | 4.32 µM | 41.9 µM | 38.1 µM | 57.8 µM | > 56.4 µM | > 69.8 µM | > 100 µM | 13.3 µM | 44.1 µM | 26.7 µM | 38.2 µM | 18.4 µM
COc1cc(O)cc(/C=C/c2ccc(O)cc2)c1 | > 100 µM | 31.2 µM | – | – | > 100 µM | > 100 µM | > 100 µM | > 100 µM | > 100 µM | > 100 µM | > 100 µM | > 100 µM | > 100 µM | 93.6 µM | 81.4 µM | 93.7 µM | 63.1 µM | 77.8 µM
Cc1ccc(/C(O)=C/c2nc3ccccc3oc2=O)cc1 | > 100 µM | > 100 µM | > 100 µM | – | > 100 µM | > 100 µM | 90.1 µM | > 100 µM | > 100 µM | > 100 µM | – | > 100 µM | > 100 µM | > 100 µM | > 100 µM | > 100 µM | > 100 µM | > 100 µM
CC(NC(=O)C(NC(=O)OC(C)(C)C)C(C)C)C(=O)N1CCCC1C(=O)NCC(=O)NC(C(=O)NCC(=O)O)C(C)C (stereo unspecified) (Boc-VAPGVG-OH; configuration not given here) | > 100 µM | > 100 µM | > 100 µM | > 100 µM | > 100 µM | > 100 µM | > 100 µM | > 100 µM | > 100 µM | > 100 µM | > 100 µM | > 100 µM | > 100 µM | > 100 µM | > 100 µM | – | – | > 100 µM
Cn1c2ccccc2c2c(-c3ccccc3)[n+]3ccccc3nc21 | 65.4 µM | > 100 µM | 99.8 µM | 37.4 µM | 41.6 µM | 59.6 µM | 69.7 µM | > 100 µM | > 100 µM | 38.8 µM | > 100 µM | > 100 µM | 60.3 µM | 85 µM | 64.7 µM | 32.7 µM | – | 61.6 µM
CC1=NN(C(=O)CC(=O)Nc2ccccc2C)C(=O)C1N=Nc1ccc(C(=O)O)cc1 (stereo unspecified) | > 100 µM | > 100 µM | > 100 µM | > 100 µM | > 100 µM | > 100 µM | > 100 µM | > 100 µM | > 100 µM | > 100 µM | – | > 100 µM | > 100 µM | > 100 µM | > 100 µM | > 100 µM | – | > 100 µM
Cc1ccc2c(c1)C(=O)/C(=C\c1ccccc1)CCS2(=O)=O | 25.2 µM | 24.2 µM | – | 44.3 µM | 36.5 µM | 24.9 µM | 14.6 µM | > 52.2 µM | 46.5 µM | > 68.7 µM | 60.8 µM | > 58 µM | > 24.7 µM | 30.7 µM | 31 µM | 28.2 µM | > 49.9 µM | 53.3 µM
